Laboratory results as given in patent US20230293460A1, “METHOD FOR TREATING DERMATITIS” (CHANG GUNG MEMORIAL HOSPITAL, LINKOU, priority 2020, published 2023).

Test system: dermatitis in the hands
Assay: Example 4: middle-aged patient with dermatitis in the hands
Format: in vivo, human
Conditions: given together: clobetasol ointment (0.025%) twice a day 21 days, desloratadine 5 mg once a day + hydroxyzine 25 mg twice a day 21 days, cyclosporine 100 mg twice a day 28 days; one patient

SMILES | scaling and chronic inflammation
OCCOCCN1CCN(C(c2ccccc2)c2ccc(Cl)cc2)CC1 (centres unmarked) [hydroxyzine] | did not improve
Clc1ccc2c(c1)CCc1cccnc1C2=C1CCNCC1 [desloratadine] | did not improve
